Results on eleven compounds are retold here after PubChem BioAssay (NCI).

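Grown in 96-well plates, cells were treated for 48 hours with each compound at five concentrations. Insufficient inhibition: endpoint recorded as highest concentration tested. The concentration for full growth arrest is given as TGI.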

Some test systems named below: 786-0 renal; CAKI-1 renal; HCT-116 colon; HCT-15 colon; M14 melanoma; NCI-H226 lung; NCI-H522 lung; NCI/ADR-RES ovarian; OVCAR-3 ovarian; OVCAR-4 ovarian; OVCAR-5 ovarian; PC-3 prostate; RXF 393 renal; SK-MEL-28 melanoma; SN12C renal; SNB-19 CNS; SR leukemia; SW-620 colon; U251 CNS; UACC-257 melanoma.
Holding throughout (experiment): growth of human tumour cells (NCI), 48 h

Consider `Cc1ccc(CCCCCOc2ccc(C3=NCCO3)cc2)s1`, for which the TGI in the test with 786-0 renal, in the test with CAKI-1 renal, in the test on HCT-116 colon, in the test with HCT-15 colon, in the test on M14 melanoma and in the test with NCI-H226 lung was over 100 µM in each case. For the same compound, the TGI with NCI-H522 lung, in the test on NCI/ADR-RES ovarian, with OVCAR-3 ovarian, in the test on OVCAR-4 ovarian, with OVCAR-5 ovarian and in the test with PC-3 prostate was over 100 µM throughout. The TGI with RXF 393 renal, with SK-MEL-28 melanoma, in the test with SN12C renal, with SNB-19 CNS, in the test with SR leukemia and in the test on SW-620 colon was over 100 µM throughout. The TGI in the test on U251 CNS and in the test with UACC-257 melanoma was over 100 µM in each case.

For the compound `CC(C)c1nc2c(Cl)c3ncccc3cc2[nH]c1=O`, the TGI with 786-0 renal, in the test with CAKI-1 renal, in the test on HCT-116 colon, in the test with HCT-15 colon, in the test with M14 melanoma and in the test with NCI-H226 lung was over 100 µM in each case. Further, the TGI with NCI-H522 lung, with NCI/ADR-RES ovarian, in the test with OVCAR-3 ovarian, in the test with OVCAR-4 ovarian, with OVCAR-5 ovarian and in the test with PC-3 prostate was over 100 µM each time. In addition, the TGI in the test on RXF 393 renal, in the test with SK-MEL-28 melanoma, in the test on SN12C renal, in the test with SNB-19 CNS, in the test with SR leukemia and in the test on SW-620 colon was over 100 µM in each case. The TGI in the test on U251 CNS and in the test with UACC-257 melanoma was over 100 µM in each case.

On to `CC(=O)OCC1OC(n2c(C)c(C(C)=O)c(-c3cccc4ccccc34)c(C#N)c2=S)C(OC(C)=O)C(OC(C)=O)C1OC(C)=O` (stereo not drawn), for which the TGI in the test with 786-0 renal, with CAKI-1 renal, in the test on HCT-116 colon, in the test on HCT-15 colon, in the test on M14 melanoma and with NCI-H226 lung was over 100 µM throughout. In addition, the TGI in the test on NCI-H522 lung, in the test with NCI/ADR-RES ovarian, with OVCAR-3 ovarian, in the test with OVCAR-4 ovarian, in the test on OVCAR-5 ovarian and in the test with PC-3 prostate was over 100 µM throughout. The TGI in the test on RXF 393 renal, with SK-MEL-28 melanoma, in the test with SN12C renal, in the test with SNB-19 CNS, in the test with SR leukemia and in the test on SW-620 colon was over 100 µM in each case. Also, the TGI with U251 CNS and with UACC-257 melanoma was over 100 µM throughout.

`O=C(NCCN1CCCC1)c1cn2c(ccc3sc4ccccc4c(=O)c32)n1`: the TGI in the test on 786-0 renal came to 2.78 µM; with CAKI-1 renal, 24.2 µM; in the test on HCT-116 colon, 8.57 µM; in the test on HCT-15 colon, 24.4 µM; with M14 melanoma it was 29.2 µM; in the test on NCI-H226 lung it was 38.1 µM. The TGI in the test with NCI-H522 lung came to 27.4 µM; with NCI/ADR-RES ovarian, 31.2 µM; in the test on OVCAR-3 ovarian it was 29.1 µM; with OVCAR-4 ovarian, 26.3 µM; in the test with OVCAR-5 ovarian, 24.2 µM; with PC-3 prostate, 27.4 µM. The TGI in the test with RXF 393 renal was 24.6 µM; in the test on SK-MEL-28 melanoma, 33.8 µM; in the test with SN12C renal it was 26.9 µM; in the test with SNB-19 CNS, 31.2 µM; in the test on SR leukemia it was 8.79 µM; in the test on SW-620 colon, 3.32 µM. For the same compound, the values for the TGI in the test with U251 CNS and in the test on UACC-257 melanoma were over 51.7 µM and 35 µM, respectively.

For the compound `COC(=O)/C=C(/C(=O)OC)c1c(C)cc2c(C)cc(C)cc(C)c1-2`, the TGI is 41.1 µM in the test with 786-0 renal; over 100 µM in the test on CAKI-1 renal; 18.5 µM with HCT-116 colon; 18.8 µM in the test on HCT-15 colon; 35.1 µM with M14 melanoma; 61.6 µM in the test with NCI-H226 lung. The TGI in the test with NCI-H522 lung was 28.4 µM; with NCI/ADR-RES ovarian it was over 64.6 µM; with OVCAR-3 ovarian it was 38.3 µM; in the test with OVCAR-4 ovarian, over 100 µM; with OVCAR-5 ovarian, over 78.8 µM; with PC-3 prostate, 98.6 µM. In addition, the TGI with RXF 393 renal was 49.2 µM; in the test on SK-MEL-28 melanoma it was over 100 µM; with SN12C renal, 40.2 µM; in the test on SNB-19 CNS, over 100 µM; with SR leukemia, over 100 µM; in the test with SW-620 colon it was over 100 µM. For the same compound, the values for the TGI in the test on U251 CNS and in the test on UACC-257 melanoma were 25.5 µM and over 77.5 µM, respectively.

Turning to `CN(C)c1ccc(N=Nc2cccc3ncccc23)cc1`, the TGI in the test with 786-0 renal, in the test on CAKI-1 renal, in the test with HCT-116 colon, in the test on HCT-15 colon, with M14 melanoma and in the test with NCI-H226 lung was over 100 µM in each case. Moreover, the TGI with NCI-H522 lung was over 73.8 µM; in the test on NCI/ADR-RES ovarian, over 100 µM; in the test with OVCAR-3 ovarian, over 100 µM; with OVCAR-4 ovarian, over 100 µM; in the test with PC-3 prostate, over 100 µM; in the test on RXF 393 renal it was over 100 µM. The TGI in the test with SK-MEL-28 melanoma, in the test with SN12C renal, in the test on SNB-19 CNS, in the test with SR leukemia, in the test with SW-620 colon and with U251 CNS was over 100 µM in each case. In addition, the TGI in the test with UACC-257 melanoma is over 100 µM.

As for `Cc1ccc(/C(O)=C/c2nc3ccccc3[nH]c2=O)c(C)c1`, the TGI was 14.7 µM in the test on 786-0 renal; 18.3 µM in the test with CAKI-1 renal; 55.8 µM in the test on HCT-116 colon; over 100 µM with HCT-15 colon; over 96 µM in the test with M14 melanoma; 37 µM in the test with NCI-H226 lung. Further, the TGI was 38.4 µM with NCI-H522 lung; 55.6 µM with NCI/ADR-RES ovarian; over 73.7 µM with OVCAR-3 ovarian; 6.17 µM in the test with OVCAR-4 ovarian; over 100 µM with OVCAR-5 ovarian; over 61.5 µM with PC-3 prostate. Moreover, the TGI in the test with RXF 393 renal is over 49.2 µM; in the test on SK-MEL-28 melanoma, 54.6 µM; with SN12C renal, 69.2 µM; in the test on SNB-19 CNS, over 45.9 µM; with SR leukemia, over 100 µM; in the test on SW-620 colon, over 100 µM. The TGI with U251 CNS is 36.7 µM; with UACC-257 melanoma it was over 75.9 µM.

Take `Clc1ccc(-c2nnc(C34CC5CC(CC(C5)C3)C4)o2)cc1`: the TGI in the test with 786-0 renal, with CAKI-1 renal, in the test on HCT-116 colon, in the test on HCT-15 colon, with M14 melanoma and with NCI-H226 lung was over 100 µM each time. Moreover, the TGI in the test with NCI-H522 lung, with NCI/ADR-RES ovarian, in the test on OVCAR-3 ovarian, in the test with OVCAR-4 ovarian, with OVCAR-5 ovarian and in the test with PC-3 prostate was over 100 µM throughout. Besides, the TGI with RXF 393 renal, in the test with SK-MEL-28 melanoma, in the test on SN12C renal, with SNB-19 CNS, in the test on SR leukemia and in the test with SW-620 colon was over 100 µM each time. In addition, the TGI with U251 CNS and with UACC-257 melanoma was over 100 µM throughout.

With `Cc1cc(N)ccc1C=O`, the TGI in the test on 786-0 renal, in the test on CAKI-1 renal, with HCT-116 colon, with HCT-15 colon, in the test with M14 melanoma and in the test with NCI-H226 lung was over 100 µM throughout. The TGI with NCI-H522 lung, with NCI/ADR-RES ovarian, in the test with OVCAR-3 ovarian, in the test with OVCAR-4 ovarian, with OVCAR-5 ovarian and in the test with PC-3 prostate was over 100 µM throughout. The TGI with RXF 393 renal, with SK-MEL-28 melanoma, with SN12C renal, in the test with SNB-19 CNS, with SR leukemia and in the test on SW-620 colon was over 100 µM in each case. Besides, the TGI in the test with U251 CNS and with UACC-257 melanoma was over 100 µM in each case.

Take `N#C/C(=C\c1ccc(Br)cc1)c1nc(-c2cc3ccccc3oc2=O)cs1`: the TGI in the test on 786-0 renal, in the test on CAKI-1 renal, with HCT-116 colon, in the test on HCT-15 colon, in the test on M14 melanoma and in the test on NCI-H226 lung was over 50 µM in each case. The TGI in the test with NCI-H522 lung was 16.1 µM; in the test on NCI/ADR-RES ovarian it was 34.4 µM; with OVCAR-4 ovarian, over 50 µM; in the test with OVCAR-5 ovarian it was over 50 µM; in the test with PC-3 prostate, over 50 µM; with RXF 393 renal, over 50 µM. The TGI with SK-MEL-28 melanoma was over 50 µM; in the test on SN12C renal, over 50 µM; in the test on SNB-19 CNS it was 24.1 µM; in the test on SR leukemia it was over 50 µM; in the test with SW-620 colon, over 50 µM; in the test with U251 CNS it was 20.1 µM. This compound came in with a TGI in the test on UACC-257 melanoma of 33.2 µM.

For the compound `O=C(OC(/C=C/c1ccccc1)P1(=O)N(Cc2ccccc2)[C@@H]2CCCC[C@H]2N1Cc1ccccc1)c1ccccc1` (stereo partly drawn), the TGI in the test with 786-0 renal, in the test on CAKI-1 renal, in the test on HCT-116 colon, with HCT-15 colon, with M14 melanoma and with NCI-H226 lung was over 100 µM each time. Further, the TGI in the test with NCI-H522 lung is over 30.6 µM; in the test with NCI/ADR-RES ovarian, over 100 µM; with OVCAR-3 ovarian, over 100 µM; with OVCAR-4 ovarian it was over 100 µM; with OVCAR-5 ovarian, over 100 µM; with PC-3 prostate it was over 100 µM. Also, the TGI in the test on RXF 393 renal was over 100 µM; with SK-MEL-28 melanoma, over 100 µM; in the test with SN12C renal, over 100 µM; in the test with SNB-19 CNS, over 100 µM; in the test on SR leukemia it was 15.2 µM; with SW-620 colon, over 100 µM. The TGI was over 100 µM in the test on U251 CNS and over 54.7 µM with UACC-257 melanoma.
